In patent US20230190743A1, “TREATMENT WITH ILEAL BILE ACID TRANSPORTER (IBAT) INHIBITORS FOR INCREASED EVENT-FREE SURVIVAL (EFS)” (Mirum Pharmaceuticals, Inc., priority 2021, published 2023):

Tests used:
Format in all cases: in vivo, human
[1] = tested on: patients with PFIC due to BSEP deficiency (nontruncated BSEP mutation); test: INDIGO long-term study, sBA control after >4.5 years of MRX
Description: Maralixibat (MRX) is an ileal bile acid transport (IBAT) inhibitor approved for the treatment of pruritus in patients with Alagille syndrome aged 1 year and older and under evaluation in patients with PFIC.

[2] = tested on: children with ALGS; test: ICONIC study, correlation of pruritus intensity (ItchRO) with cholestasis biomarkers and quality of life
Description: This study evaluates how change in pruritus intensity correlates with change in cholestasis biomarkers in children with ALGS receiving maralixibat (ICONIC study; NCT02160782, described above). The goal of the present study is to characterize correlations between pruritus, as measured by the Itch-Reported Outcome (ItchRO) Observer tool, and multiple parameters, including sBA and sBA subspecies, autotaxin (ATX), and quality of life measures following maralixibat treatment in children with ALGS. Twenty-nine of the 31 enrolled participants completed 48 weeks of treatment, with 27 evaluated for this analysis.

[3] = tested on: patients with PFIC due to BSEP deficiency; test: Longitudinal serum bile acid profiling by UHPLC-MS/MS in INDIGO patients
Protocol: Total and individual serum BAs (sBA) including the major sub-species of TCA, TUDCA, TCDCA, TDCA, TLCA, GCA, GUDCA, GCDCA, GDCA, GLCA, CA, UDCA, CDCA, DCA, LCA and 7α-hydroxy-4-cholesten-3-one (sterol-C4), a surrogate marker for BA synthesis, were measured using a validated ultraperformance liquid chromatography coupled with tandem mass spectrometry (UHPLC-MS/MS) assay. The internal standards, a cocktail of deuterium labeled standards were added to serum, calibrators and QC samples. sBA were extracted and separated on a Kinetex C18 (2.6 μm, 100×3.0 mm) column (Phenomenex, Torrance, Calif.) with gradient elution. Quantification of individual sBA was achieved by multiple reaction monitoring (MRM) of selected transitions. Total C24 bile acid concentrations were calculated from the sum of individual species. These assays were applied to the analysis of serum from 19 patients with genetically confirmed PFIC due to BSEP deficiency (open-label phase 2 INDIGO trial; NCT02057718) treated with MRX. Changes in the composition of sBA associated with pruritus improvement measured with the Itch Reported Outcome Observer (ItchRO[Obs]) score were monitored at intervals over 72 weeks, with pruritus responders, defined as >1 scale reduction, compared with nonresponders. Linear mixed model framework was also used to model longitudinal profiles of sBA and pruritus reduction over time.

[4] = tested on: patients with ALGS; test: Predictors of 6-year EFS and TFS in maralixibat-treated patients from three long-term clinical trials
Protocol: MRX-treated ALGS patients from 3 long-term clinical trials were followed for development of clinically significant events (LTx, surgical biliary diversion [SBD], hepatic decompensation [ascites requiring therapy and variceal bleeding], and death) for up to 6 yrs. TFS (LTx and death only) was also assessed. Those who were on MRX 48 weeks from the first dose and had lab results at 48 weeks were included in this analysis. Variables considered in the model included: liver biochemistries, platelets, pruritus (as assessed by ItchRO(Obs) 0¬4 scale), total serum bile acids (sBA), and age. Goodness of fit was assessed using Harrell's concordance statistic (C-statistic). Cutoffs were determined via a grid search. P-values are from a log-rank test.
Patients (N=76) with ALGS aged 14-207 months with moderate-to-severe pruritus were included in this analysis. Maralixibat-treated patients with ALGS from three long-term clinical trials (ClinicalTrials.gov ID: NCT02047318; ClinicalTrials.gov ID: NCT02160782; ClinicalTrials.gov ID: NCT02117713) were followed for development of first clinically significant event (LT, surgical biliary diversion, hepatic decompensation [ascites requiring therapy and variceal bleeding], or death) for up to six years. TFS (LT and death only) was also assessed. Patients who were on maralixibat 48 weeks from the first dose and had lab results at 48 weeks were included in this analysis.
Variables considered in the model included: liver biochemistries, platelets, pruritus (as assessed by Itch-Reported Outcome [Observer] [ItchRO(Obs)] 0-4 scale), total sBA, and age at initiation. These were explored at baseline, week 48, and change from baseline to week 48. Goodness of fit was assessed using Harrell's concordance statistic (C-statistic). Variables with a value ≥0.7 (indicating a good model) were selected for further analysis. Cutoffs for each variable were determined via a grid search across the range of values. Statistical comparisons between the cutoff groups were calculated using a log-rank test.

[5] = patients with sBA control, to Week 237, p<0.05
[6] = Week 48 sBA <200 μmol/L, n = 56
[7] = Week 48 sBA ≥200 μmol/L, n = 18
[8] = Week 48 total bilirubin <6.5 mg/dL, n = 52
[9] = Week 48 total bilirubin ≥6.5 mg/dL, n = 24
[10] = age at initiation of maralixibat <36 months, n = 21
[11] = age at initiation of maralixibat ≥36 months, n = 55
[12] = change from baseline to week 48 ItchRO(Obs) >1 pt reduction, n = 46
[13] = change from baseline to week 48 ItchRO(Obs) ≤1 pt reduction, n = 30

Q: CCCCC1(CCCC)CS(=O)(=O)c2ccc(N(C)C)cc2[C@@H](c2ccc(OCc3ccc(C[N+]45CCN(CC4)CC5)cc3)cc2)[C@H]1O [maralixibat] was tested. Which “listing for liver transplant” value ([1]; after >4.5 years of MRX, result in words) did it give?
A: Its value is “No ongoing patients were listed for liver transplant”.

Q: And the “long-term safety and tolerability” value ([1]; most frequent TEAEs mild to moderate, result in words)?
A: The value was “safe and well tolerated”.

Q: And the “patients who achieved sBA control and remained on-study as of Week 237” value ([1]; of n=19 with nontruncated BSEP mutation, sBA threshold ≤100 μmol/L)?
A: The value was 7 patients.

Q: And the pruritus ([1]; p<0.001, result in words)?
A: The pruritus was “improved significantly”.

Q: What about the “Growth (height z-score)” value ([1]; p<0.01, result in words) of the same compound?
A: Its value is “improved significantly”.

Q: What about the native liver survival ([1]; patients who achieved control of sBA during MRX treatment) of the same compound?
A: Its native liver survival is > 4.5 years.

Q: And the “mean sBA value” ([1]; patients with sBA control, Week 237, vs. 299.6 μmol/L at baseline)?
A: Its value is 44.2 (38.8) μmol/L.

Q: What about the “mean direct bilirubin value” ([1]; patients with sBA control, Week 237, vs. 0.6 at BL) of the same compound?
A: Its value is 0.1 mg/dL.

Q: What about the “mean total bilirubin value” ([1]; patients with sBA control, Week 237, vs. 0.8 at BL) of the same compound?
A: Its value is 0.7 mg/dL.

Q: And the “mean ALT value” ([1]; patients with sBA control, Week 237, vs. 57.9 at BL)?
A: Its value is 16.7 U/L.

Q: And the “mean AST value” ([1]; patients with sBA control, Week 237, vs. 62.1 at BL)?
A: Its value is 26.7 U/L.

Q: What about the “Mean (SE) sBA reduction” value [1, 5] of the same compound?
A: Its value is 234.4 (80.5) μmol/L.

Q: What about the “Mean reduction in ALT” value [1, 5] of the same compound?
A: The value was 41.1 (14.3) U/L.

Q: And the “Mean reduction in AST” value [1, 5]?
A: The value was 35.4 (11.5) U/L.

Q: What about the “Mean reduction in direct bilirubin” value ([1]; patients with sBA control, to Week 237, p=0.13) of the same compound?
A: The value was 0.4 (0.2) mg/dL.

Q: And the “Mean reduction in total bilirubin” value ([1]; patients with sBA control, to Week 237, p=0.8)?
A: Its value is 0.1 (0.3) mg/dL.

Q: What about the “bilirubin in those with abnormal bilirubin” value ([1]; result in words) of the same compound?
A: Its value is “normalized”.

Q: What about the “overall average ItchRO score reduction” value ([2]; at week 48) of the same compound?
A: The value was 1.6 points.

Q: And the “ItchRO score reduction of the one participant who normalized” value ([2]; one participant)?
A: The value was −3.5 points.

Q: And the “pruritus, using ItchRO and CSS scores” value ([2]; result in words)?
A: The value was “significant and clinically meaningful improvements in pruritus”.

Q: What about the “Change in ItchRO score (points)” value ([2]; sBA reduction (%) 50, N 8) of the same compound?
A: The value was −1.90 points.

Q: And the “Change in ItchRO score (points)” value ([2]; sBA reduction (%) 60, N 8)?
A: Its value is −2.12 points.

Q: And the “Change in ItchRO score (points)” value ([2]; sBA reduction (%) 70, N 6)?
A: The value was −2.31 points.

Q: What about the “Change in ItchRO score (points)” value ([2]; sBA reduction (%) 80, N 3) of the same compound?
A: Its value is −2.79 points.

Q: And the “Change in ItchRO score (points)” value ([2]; sBA reduction (%) 90, N 1)?
A: Its value is −2.71 points.

Q: And the “reduction from baseline in total sBA, pruritus responders vs nonresponders” value ([3]; longitudinal data, p<0.05, result in words)?
A: The value was “significantly greater”.

Q: And the “patients who met the pruritus-response criteria (>1 scale reduction ItchRO[Obs])” value ([3]; of the 19 patients, over 72 weeks)?
A: Its value is 11 patients.

Q: And the “proportion of unconjugated BA” value ([3]; pruritus nonresponders, p=0.09)?
A: Its value is 0.61±0.24%.

Q: What about the “proportion of unconjugated BA” value ([3]; pruritus responders) of the same compound?
A: The value was 9.84±4.87%.

Q: And the “clinical event: LT” value ([4]; 76 patients)?
A: The value was 10 n.

Q: What about the “clinical event: death” value ([4]; 76 patients) of the same compound?
A: The value was 2 n.

Q: And the “clinical event: decompensation” value ([4]; 76 patients)?
A: Its value is 3 n.

Q: And the “clinical event: surgical biliary diversion” value ([4]; 76 patients)?
A: Its value is 1 n.

Q: And the “patients who experienced clinical events” value ([4]; 76 patients, up to six years)?
A: Its value is “Sixteen”.

Q: What about the “6-year EFS” value [4, 6] of the same compound?
A: Its value is 6-year EFS: 85%.

Q: And the “6-year TFS” value [4, 6]?
A: The value was 6-year TFS: 90%.

Q: What about the “6-year EFS” value [4, 7] of the same compound?
A: The value was 6-year EFS: 49%.

Q: What about the “6-year TFS” value [4, 7] of the same compound?
A: The value was 6-year TFS: 49%.

Q: And the “6-year EFS” value [4, 8]?
A: The value was 6-year EFS: 90%.

Q: What about the “6-year TFS” value [4, 8] of the same compound?
A: Its value is 6-year TFS: 94%.

Q: And the “6-year EFS” value [4, 9]?
A: The value was 6-year EFS: 43%.

Q: And the “6-year TFS” value [4, 9]?
A: Its value is 6-year TFS: 42%.

Q: And the “6-year EFS” value [4, 10]?
A: The value was 6-year EFS: 57%.

Q: What about the “6-year TFS” value [4, 10] of the same compound?
A: The value was 6-year TFS: 57%.

Q: And the “6-year EFS” value [4, 11]?
A: The value was 6-year EFS: 83%.

Q: What about the “6-year TFS” value [4, 11] of the same compound?
A: Its value is 6-year TFS: 87%.

Q: What about the “6-year EFS” value [4, 12] of the same compound?
A: Its value is 6-year EFS: 88%.

Q: And the “6-year TFS” value [4, 12]?
A: Its value is 6-year TFS: 93%.

Q: What about the “6-year EFS” value [4, 13] of the same compound?
A: The value was 6-year EFS: 57%.

Q: What about the “6-year TFS” value [4, 13] of the same compound?
A: Its value is 6-year TFS: 57%.

Q: What about the “6-year EFS (%)” value ([4]; number of worse EFS predictor variables: 0) of the same compound?
A: The value was 89%.

Q: And the “6-year EFS (%)” value ([4]; number of worse EFS predictor variables: 1)?
A: Its value is 89%.

Q: And the “6-year EFS (%)” value ([4]; number of worse EFS predictor variables: 2)?
A: Its value is 86%.

Q: What about the “6-year EFS (%)” value ([4]; number of worse EFS predictor variables: 3) of the same compound?
A: The value was 29%.

Q: And the “6-year EFS (%)” value ([4]; number of worse EFS predictor variables: 4)?
A: Its value is 33%.

Q: What about the “rate of 6-year EFS” value ([4]; patients with ≤2 predictors of worse EFS after 48 weeks of treatment) of the same compound?
A: Its value is 88%.

Q: What about the “rate of 6-year EFS” value ([4]; patients with ≥3 predictors of worse EFS after 48 weeks of treatment) of the same compound?
A: Its value is 31%.
